Assay results: patent US20260102407A1, “TREATMENT METHODS” (priority 2020, published 2026)

How the values were obtained:
VCAM-1 [1] = assay: Flow cytometry of VCAM-1 on IL-1β-treated HMEC-1; type: cell-based, human; settings: 30 μM, 20 ng/ml IL-1β 4 h
Description: Flow cytometry. HMEC-1 (at 80-90% confluency) were arrested in serum-free MCDB131 medium without EGF or hydrocortisone for 40 h, treated with 30 μM BT2 or BT3 for 4 h. The cells were incubated in serum-free medium and exposed to 20 ng/ml IL-1β with the same concentration of BT2 or BT3 for a further 4 h. The cells were washed with PBS then detached with Accutase (Stem Cell Technologies, cat. 07920). The cells were centrifuged at 300 g for 5 min and resuspended at 5×10^6 cells/ml containing BT2 or BT3. The cells were incubated with BV421-conjugated mouse anti-human CD106 (VCAM-1) (BD, cat. 744309) or BV421-conjugated mouse IgG1 (BD, cat. 562438) for 45 min at 22° C. The cells were washed with Stain Buffer and the pellet was resuspended in 0.5 ml of 1% paraformaldehyde prior to flow cytometry BD FACSCanto II.
VCAM-1^+ and VCAM-1^− cells were gated by performing flow cytometry with or without primary VCAM-1 antibody (non-specific staining), respectively. […] The gating strategy is based on fluorescence excitation off both the 488 nm laser and 405 nm laser with emission filters 670LP off 488 nm and 450/50 off 405 nm. Cells with autofluorescence or negative (blue population) had equal proportion of fluorescence in both channels and VCAM-1 positive cells (red) emit light in the 450/50 filter.

VCAM-1 [2] = assay: Collagen antibody-induced arthritis, hind limb immunohistochemistry for VCAM-1; type: in vivo, mouse; settings: CAIA mice; Day 14 hind limbs
Description: Collagen antibody-induced arthritis. Arthritis was induced in female Balb/c mice (6-8 week-old) as previously described with a commercially obtained cocktail of 5 monoclonal antibodies to type II collagen at 2 mg/mouse (Chondrex, Inc. Redmond, WA) followed by LPS (50 μg/mouse) with or without BT2 (3 or 30 mg/kg mouse) in DMSO vehicle was administered i.p. on Day 3. Hind footpad thickness was measured on Day 9 using digital calipers. Mice were sacrificed on Day 14 and microCT scanning of hind limbs was performed.
Immmunohistochemical staining of hind limbs for VCAM-1 and ICAM-1 and analysis. Formalin-fixed, paraffin embedded of hind limbs were sectioned (5 μm). Dako EnVision Rabbit Kit (cat. K4011, Dako) was used for immmunohistochemical staining for VCAM-1 and ICAM-1. […] Integrated optical density (IOD) of positive staining in ankle joint (tibia and talus) articular cartilage was assessed for VCAM-1 and ICAM-1 using Image-Pro Plus software (Cybernetics, Bethesda, MD, USA). Area (μm^2) of ankle joint articular cartilage was measured using Image-Pro Plus software. Total cell number and positive staining cell number in ankle joint articular cartilage were counted manually using Image-Pro Plus software. […]

With `CCOC(=O)Nc1ccc2c(c1)C(=O)N(CC)c1ccccc1O2` [BT2, (10-ethyl-11-oxo-10,11-dihydro-dibenzo[b,f][1,4]oxazepin-2-yl)-carbamic acid ethyl ester] the “VCAM-1 expression by flow cytometry” value (VCAM-1 [1]) was “inhibition of VCAM-1” and the “VCAM-1 expression in bone” value (VCAM-1 [2]) was “inhibit VCAM-1 and ICAM-1 expression”.
